Measured values taken from paper PMC11331448 (Journal of chemical information and modeling, 2024).

Target: BChE (Homo sapiens, UniProt P06276)
Conditions: BChE versus AChE inhibition, colorimetric kits

BChE, sequence (P06276 29-602, species assumed): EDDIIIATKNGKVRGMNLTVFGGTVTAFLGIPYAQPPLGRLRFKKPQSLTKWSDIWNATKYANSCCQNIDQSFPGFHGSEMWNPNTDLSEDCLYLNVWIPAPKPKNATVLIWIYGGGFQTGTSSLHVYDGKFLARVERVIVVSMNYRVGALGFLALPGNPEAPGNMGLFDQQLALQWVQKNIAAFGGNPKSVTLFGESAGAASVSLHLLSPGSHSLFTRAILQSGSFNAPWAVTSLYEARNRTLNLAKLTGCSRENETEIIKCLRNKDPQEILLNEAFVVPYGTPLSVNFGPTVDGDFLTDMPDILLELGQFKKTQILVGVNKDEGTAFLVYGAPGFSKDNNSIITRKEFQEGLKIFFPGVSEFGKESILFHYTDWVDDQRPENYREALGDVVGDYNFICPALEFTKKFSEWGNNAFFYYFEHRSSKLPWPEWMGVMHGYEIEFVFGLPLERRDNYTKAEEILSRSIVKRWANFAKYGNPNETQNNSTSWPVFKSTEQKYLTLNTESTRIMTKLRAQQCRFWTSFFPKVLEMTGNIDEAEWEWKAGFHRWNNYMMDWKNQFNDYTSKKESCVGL

Q: With `OC(CN1CCCCC1)c1c[nH]c2ccccc12` (stereo not shown) [CPI7075, 1-(1H-indol-3-yl)-2-(piperidin-1-yl)ethanol] as the molecule, how does the “BChE selectivity in vitro” value read?
A: The value was “selective BChE inhibitors”.
